# Results from patent US20030027819A1, “Beta-sheet mimetics and methods relating to the use thereof” (Molecumetics Ltd., priority 1996, published 2003).
# pKi: −log10 of the molar value.
# Molecular target: thrombin (Bos taurus, UniProt P00735)
# Assay: Thrombin inhibition by solid phase compounds of Tables 11-15
# Assay type: biochemical
# Set-up: 100 μl of 10 μM thrombin solution
# Settings: mixtures of diastereomers; read-out: Ki as thrombin inhibitors (mark at Cpd. No.)
# Experimental: Following extensive washing with DMF, the resin was treated with the acid fluoride of N-Fmoc-4-aminomethylbenzoic acid, or (81), or (86) and Hunigs' base in DMF until the Kaiser test was negative. Alternatively, the Fmoc-protected thiazole-(75) or imidazole-based (77) linkers were coupled to the resin using BOP, HOBt and DIEA. In some instances Fmoc-Leu or another amino acid was attached to the resin prior to the thiazole-(75) or imidazole-based (77) linkers via the same methodology. […] Following washing with DMF a dienoic acid was coupled to the resin-bound linkers using PyBOP, HOBt and Hunigs' base in DMF until the result of a Kaiser test was negative. The cycloaddition was performed by pretreatment of a solution of a pyrazolidinedione (not shown) or urazole in DMF with a solution of [bis(trifluoroacetoxy)iodo]benzene in DMF. […] The resin was then washed with DMF and CH2Cl2. Oxidation to the ketoamide was effected by treatment of the resin with a solution of Dess-Martin periodinane in DMSO for 60 min. […] The supernatant was collected and the resin was washed with additional TFA. The combined filtrates were concentrated in vacuo. The residue was precipitated with diethyl ether and the ether was decanted. The resulting solid was reconstituted in 1:1 CH3CN:H2O and lyophilized. […] The compounds were assayed for inhibition of coagulation enzymes as mixtures of diastereomers.
row,pKi,SMILES
1,> 8.00,CC(CC1C=CC(C(=O)NC(CCCCN)C(=O)C(=O)NCCc2ccc(C(N)=O)cc2)n2c(=O)n(Cc3cc(F)ccc3F)c(=O)n21)CC(C)(C)C (centres unmarked) [Structure 135]
2,> 8.00,CC1=CC(C(=O)NC(CCCNC(=N)N)C(=O)c2nc(C(N)=O)cs2)n2c(=O)n(CC(c3ccccc3)c3ccccc3)c(=O)n2C1 (centres unmarked) [Structure 198]
3,> 8.00,CC1=CC(C(=O)NCC2CCC(C(=N)N)CC2)n2c(=O)n(CC(c3ccccc3)c3ccccc3)c(=O)n2C1 (centres unmarked) [Structure 221-18]
4,> 8.00,CC(C)CC1C=CC(C(=O)NC(CCCCN)C(=O)C(=O)NCc2ccc(C(N)=O)cc2)n2c(=O)n(Cc3cccc4ccccc34)c(=O)n21 (centres unmarked) [Structure 109]
5,> 8.00,CC1=CC(C(=O)NC(CCCCN)C(=O)C(=O)NCCc2ccc(C(N)=O)cc2)n2c(=O)n(CC(C)c3ccccc3)c(=O)n2C1c1ccccc1 (centres unmarked) [Structure 123]
6,> 8.00,NCCCCC(NC(=O)C1C=C2CCCCC2n2c(=O)n(Cc3cc(F)ccc3F)c(=O)n21)C(=O)C(=O)NCCCc1ccc(C(N)=O)cc1 (centres unmarked) [Structure 226]
7,> 8.00,CC(CC1C=CC(C(=O)NC(CCCCN)C(=O)C(=O)NCCc2ccc(C(N)=O)cc2)n2c(=O)n(-c3ccc(C(C)(C)C)cc3)c(=O)n21)CC(C)(C)C (centres unmarked) [Structure 128]
8,> 8.00,CC1=CC(C(=O)NC(CCCNC(=N)N)C(=O)c2nc(C(N)=O)c[nH]2)n2c(=O)n(CC(c3ccccc3)c3ccccc3)c(=O)n2C1 (centres unmarked) [Structure 201]
9,> 8.00,CC1=CC(C(=O)NC(CCCNC(=N)N)C(=O)c2nc3ccccc3s2)n2c(=O)n(Cc3ccccc3)c(=O)n2C1 (centres unmarked) [Structure 211]
10,> 8.00,NCCCCC(NC(=O)C1C=C2CCCCC2n2c(=O)n(CCc3cccs3)c(=O)n21)C(=O)C(=O)NCCc1ccc(C(N)=O)cc1 (centres unmarked) [Structure 119]
11,> 8.00,CC(CC1C=CC(C(=O)NC(CCCCN)C(=O)C(=O)NCCc2ccc(C(N)=O)cc2)n2c(=O)n(Cc3ccc(C(F)(F)F)cc3)c(=O)n21)CC(C)(C)C (centres unmarked) [Structure 133]
12,> 8.00,CC1=CC(C(=O)NC(CCCCN)C(=O)C(=O)NCCc2ccc(C(N)=O)cc2)n2c(=O)n(C(c3ccccc3)c3ccccc3)c(=O)n2C1 (centres unmarked) [Structure 138]
13,> 8.00,CC(C)CC1C=CC(C(=O)NC(CCCCN)C(=O)C(=O)NCCc2ccc(C(N)=O)cc2)n2c(=O)n(Cc3ccccc3)c(=O)n21 (centres unmarked) [Structure 112]
14,> 8.00,CCC=CCCC1C=CC(C(=O)NC(CCCCN)C(=O)C(=O)NCCc2ccc(C(N)=O)cc2)n2c(=O)n(Cc3ccc(C(F)(F)F)c(F)c3)c(=O)n21 (mixture of isomers) [Structure 104]
15,> 8.00,CC(CC1C=CC(C(=O)NC(CCCCN)C(=O)C(=O)NCCc2ccc(C(N)=O)cc2)n2c(=O)n(Cc3ccc(C(F)(F)F)c(F)c3)c(=O)n21)CC(C)(C)C (centres unmarked) [Structure 134]
16,> 8.00,CC(C)CC1C=CC(C(=O)NC(CCCCN)C(=O)C(=O)NCCc2ccc(C(N)=O)cc2)n2c(=O)n(Cc3cccs3)c(=O)n21 (centres unmarked) [Structure 116]
17,> 8.00,CC1=CC(C(=O)NC(CCCCN)C(=O)C(=O)NCc2ccc(C(N)=O)cc2)N2C(=O)C(N)(Cc3ccccc3)C(=O)N2C1 (centres unmarked) [Structure 189]
18,> 8.00,CC(C)(C)CC1C=CC(C(=O)NC(CCCCN)C(=O)C(=O)NCCc2ccc(C(N)=O)cc2)n2c(=O)n(CCc3ccccc3)c(=O)n21 (centres unmarked) [Structure 142]
19,> 8.00,CC(C)(C)CC1C=CC(C(=O)NC(CCCCN)C(=O)C(=O)NCCc2ccc(C(N)=O)cc2)n2c(=O)n(C(Cc3ccccc3)c3ccccc3)c(=O)n21 (centres unmarked) [Structure 144]
20,> 8.00,CC1=CC(C(=O)NC(CCCCN)C(=O)C(=O)NCc2ccc(C(=O)NCCc3ccccc3)cc2)n2c(=O)n(Cc3cc(F)ccc3F)c(=O)n2C1 (centres unmarked) [Structure 102]
21,> 8.00,CC(C)(C)CC1C=CC(C(=O)NC(CCCCN)C(=O)C(=O)NCCc2ccc(C(N)=O)cc2)n2c(=O)n(C(c3ccccc3)c3ccccc3)c(=O)n21 (centres unmarked) [Structure 141]
22,> 8.00,CCC=CCCC1C=CC(C(=O)NC(CCCCN)C(=O)C(=O)NCCc2ccc(C(N)=O)cc2)n2c(=O)n(Cc3cc(F)ccc3F)c(=O)n21 (mixture of isomers) [Structure 103]
23,> 8.00,CC1=CC(C(=O)NC(CCCCN)C(=O)C(=O)NCCc2ccc(C(N)=O)cc2)n2c(=O)n(C(Cc3ccccc3)c3ccccc3)c(=O)n2C1 (centres unmarked) [Structure 136]
24,> 8.00,CCC=CCCC1C=CC(C(=O)NC(CCCCN)C(=O)C(=O)NCCc2ccc(C(N)=O)cc2)n2c(=O)n(Cc3ccccc3)c(=O)n21 (mixture of isomers) [Structure 107]
25,> 8.00,CC(CC1C=CC(C(=O)NC(CCCCN)C(=O)C(=O)NCCc2ccc(C(N)=O)cc2)n2c(=O)n(CC(c3ccccc3)c3ccccc3)c(=O)n21)CC(C)(C)C (centres unmarked) [Structure 130]

row,pKi,SMILES
1,> 8.00,CC(C)(C)CC1C=CC(C(=O)NC(CCCCN)C(=O)C(=O)NCCc2ccc(C(N)=O)cc2)n2c(=O)n(Cc3cc(F)ccc3F)c(=O)n21 (centres unmarked) [Structure 225]
2,> 8.00,CC1=CC(C(=O)NCC2CCC(N)CC2)n2c(=O)n(CCS(=O)(=O)c3ccccc3)c(=O)n2C1 (centres unmarked) [Structure 221-5]
3,> 8.00,CC(C)CC1C=CC(C(=O)NC(CCCCN)C(=O)C(=O)NCc2ccc(C(N)=O)cc2)n2c(=O)n(Cc3cccs3)c(=O)n21 (centres unmarked) [Structure 110]
4,> 8.00,CC(CC1C=CC(C(=O)NC(CCCCN)C(=O)C(=O)NCCc2ccc(C(N)=O)cc2)n2c(=O)n(C(Cc3ccccc3)c3ccccc3)c(=O)n21)CC(C)(C)C (centres unmarked) [Structure 129]
5,> 8.00,CC1=CC(C(=O)NC(CCCCN)C(=O)C(=O)NCCc2ccc(C(N)=O)cc2)n2c(=O)n(Cc3cccc4ccccc34)c(=O)n2C1c1ccccc1 (centres unmarked) [Structure 125]
6,> 8.00,CC(Cn1c(=O)n2n(c1=O)C1CCCCC1=CC2C(=O)NC(CCCCN)C(=O)C(=O)NCCc1ccc(C(N)=O)cc1)c1ccccc1 (centres unmarked) [Structure 121]
7,> 8.00,CC(C)CCn1c(=O)n2n(c1=O)C(C(=O)NC(CCCCN)C(=O)C(=O)NCCc1ccc(C(N)=O)cc1)C=CC2CC(C)CC(C)(C)C (centres unmarked) [Structure 126]
8,> 8.00,CC1=CC(C(=O)NC(CCCNC(=N)N)C(=O)c2nc3ccccc3s2)n2c(=O)n(Cc3ccccc3)c(=O)n2C1 (centres unmarked) [Structure 224]
9,> 8.00,CC1=CC(C(=O)NC(CCCCN)C(=O)C(=O)NCCc2ccc(C(N)=O)cc2)n2c(=O)n(Cc3ccc(C(F)(F)F)c(F)c3)c(=O)n2C1 (centres unmarked) [Structure 137]
10,> 8.00,CCC=CCCC1C=CC(C(=O)NC(CCCCN)C(=O)C(=O)NCCc2ccc(C(N)=O)cc2)n2c(=O)n(C(Cc3ccccc3)c3ccccc3)c(=O)n21 (mixture of isomers) [Structure 105]
11,> 8.00,CC1=CC(C(=O)NC(CCCCN)C(=O)C(=O)NCCc2ccc(C(N)=O)cc2)n2c(=O)n(Cc3cc(F)ccc3F)c(=O)n2C1c1ccccc1 (centres unmarked) [Structure 122]
12,> 8.00,CC1=CC(C(=O)NC(CCCCN)C(=O)C(=O)NCCc2ccc(C(N)=O)cc2)N2C(=O)C(Cc3ccccc3)(Cc3ccccc3)C(=O)N2C1 (centres unmarked) [Structure 187]
13,> 8.00,CC1=CC(C(=O)NC(CCCCN)C(=O)C(=O)NCCc2ccc(C(N)=O)cc2)n2c(=O)n(CC(F)(F)F)c(=O)n2C1 (centres unmarked) [Structure 145]
14,> 8.00,CC1=CC(C(=O)NC(CCCCN)C(=O)C(=O)NCc2ccc(C(=O)NCCc3ccccc3)cc2)n2c(=O)n(Cc3cc(F)ccc3F)c(=O)n2C1 (centres unmarked) [Structure 223]
15,> 8.00,CC(C)(C)CC1C=CC(C(=O)NC(CCCCN)C(=O)C(=O)NCCc2ccc(C(N)=O)cc2)n2c(=O)n(Cc3cc(F)ccc3F)c(=O)n21 (centres unmarked) [Structure 139]
16,> 8.00,NCCCCC(NC(=O)C1C=C2CCCCC2n2c(=O)n(Cc3cc(F)ccc3F)c(=O)n21)C(=O)C(=O)NCCc1ccc(C(N)=O)cc1 (centres unmarked) [Structure 120]
17,> 8.00,CC1=CC(C(=O)NC(CCCNC(=N)N)C(=O)c2nc3ccccc3s2)n2c(=O)n(CC(c3ccccc3)c3ccccc3)c(=O)n2C1 (centres unmarked) [Structure 215]
18,> 8.00,CC1=CC(C(=O)NC(CCCCN)C(=O)C(=O)NCCc2ccc(C(N)=O)cc2)n2c(=O)n(Cc3cc(F)ccc3F)c(=O)n2C1 (centres unmarked) [Structure 100]
19,> 8.00,CC(C)(C)CC1C=CC(C(=O)NC(CCCCN)C(=O)C(=O)NCCc2ccc(C(N)=O)cc2)n2c(=O)n(Cc3ccccc3)c(=O)n21 (centres unmarked) [Structure 140]
20,> 8.00,CC(C)CC1C=CC(C(=O)NC(CCCCN)C(=O)C(=O)NCCc2ccc(C(N)=O)cc2)n2c(=O)n(CC(C)c3ccccc3)c(=O)n21 (centres unmarked) [Structure 111]
21,> 8.00,CC(CC1C=CC(C(=O)NC(CCCCN)C(=O)C(=O)NCCc2ccc(C(N)=O)cc2)n2c(=O)n(Cc3ccccc3)c(=O)n21)CC(C)(C)C (centres unmarked) [Structure 132]
22,> 8.00,CC(C)CC1C=CC(C(=O)NC(CCCCN)C(=O)C(=O)NCCc2ccc(C(N)=O)cc2)n2c(=O)n(Cc3cccc4ccccc34)c(=O)n21 (centres unmarked) [Structure 117]
23,> 8.00,CC(C)(C)CC1C=CC(C(=O)NC(CCCCN)C(=O)C(=O)NCCc2ccc(C(N)=O)cc2)n2c(=O)n(CC(c3ccccc3)c3ccccc3)c(=O)n21 (centres unmarked) [Structure 143]
24,> 8.00,CC1=CC(C(=O)NC(CCCCN)C(=O)C(=O)NCCc2ccc(C(N)=O)cc2)n2c(=O)n(Cc3cccs3)c(=O)n2C1c1ccccc1 (centres unmarked) [Structure 124]
25,> 8.00,CC(C)CC1C=CC(C(=O)NC(CCCCN)C(=O)C(=O)NCCc2ccc(C(N)=O)cc2)n2c(=O)n(C(c3ccccc3)c3ccccc3)c(=O)n21 (centres unmarked) [Structure 118]
